# Results taken from patent US11351185B2, “Use of isovalerylspiramycins as anti-cancer agents to inhibit metastasis” (priority 2020, dated 2022).
# Entries after “also recorded” stand apart in the source; their conditions may differ.
# Assays:
# LN229 and U251 cells = assay: Annexin V apoptosis flow cytometry, glioblastoma cells; type: cell-based
# Protocol: To assess the cytotoxicity of ISPs I, II and III, five glioblastoma cell lines, T98G, U118, A172, LN229 and U251, were treated with serial doses of each ISP, respectively, for 48 hours. Cell viability of these cell lines were evaluated by CCK8 assay, and the 50% inhibitory concentration (IC50) was calculated (FIG. 2A, B and FIG. 3). […] Cell distribution in each phase of the cell cycle was assessed in LN229 and U251 cells by flow cytometry, followed by EdU and DAPI staining.
# Cells (2×10^5) were plated in 6-well plates and treated with different concentrations of ISP I. Then the cells were harvested and washed three times with PBS. Cells were resuspended in 100 μl binding buffer and were incubated with 5 μl APC-conjugated Annexin V working solution, a product of BD bioscience (Franklin Lakes, N.J. USA), and 1 μl propidium iodide (PI), a product of Invitrogen, for 15 min at room temperature with protection from light. Data acquisition and quantification were processed with BD LSRFortessa flow cytometer, using FlowJo software (Ashland, Oreg. USA).
# [1] = test system: other proteins (antioxidant components); assay: Surface plasmon resonance (SPR) assay, other antioxidant components; type: binding
# [2] = test system: mitochondrial ROS (superoxide); assay: MitoSOX staining, flow cytometry; type: cell-based; settings: 24 hours
# Protocol: Since glutathione peroxidase catalyzes the reduction of reactive oxidative species (ROS), the inventors assessed whether treatment with ISP I increased the generation of ROS in glioblastoma cell lines (LN229 and U251) and RCC cell lines (786-O and RCC4).
# To detect changes in mitochondrial superoxide after treatment with ISP I, the inventors used the MitoSOX Red mitochondrial superoxide indicator kit, a product of ThermoFisher Scientific. […] Cells were incubated with 5 μM MitoSOX Red for 15 min at room temperature, followed by flow cytometry analysis. Excitation by means of a 561 nm laser and a 610/20 discriminating filter was applied by a BD LSRFortessa flow cytometer.
# NRF2, HMOX1, NQO1 = assay: Real time RT-PCR of NRF2 and downstream genes; type: cell-based; settings: for NRF2 expression (RT-PCR): 24 hours
# Protocol: NRF2 (NFE2L2) is a transcription factor that regulates redox homeostasis by binding to the regulatory regions of antioxidant response elements (ARE). […] Glioblastoma (LN229 and U251) cells and RCC (786-O and RCC4) cells were treated with ISP I and evaluated for NRF2 expression levels. […] Considering this finding, the inventors evaluated SELH's regulatory role on NRF2 by measuring NRF2 expression in cells that either overexpressed or had silenced SELH expression.
# Total RNA was extracted using PureLink RNA Mini Kit, a product of ThermoFisher Scientific (Waltham, Mass. USA), according manufacturer's protocol. First strand cDNA was synthesized with iScript cDNA Synthesis Kit, a product of Bio-Rad (Hercules, Calif. USA). Then the inventors performed real time PCR by SsoAdvanced Universal SYBR Green Supermix kit, a product of Bio-Rad, to quantify the expression levels of genes NRF2, HMOX1, and NQO1. The primer sequences are described in Liu et al., J. Nat'l Cancer Inst. 111: 1033 (2019). Data were analyzed and normalized to 18s rRNA as the reference gene for further statistics.
# POL1 occupancy on rDNA = assay: Chromatin immunoprecipitation (CHIP) assay; type: cell-based; settings: LN229 cells
# Protocol: SELH is localized in the nucleolus, which is a sensor of oxidative stress. Yang et al., Nature communications 7: 13599 (2016); Novoselov et al., J. Biol. Chem. 282: 11960 (2007). […] JNK2 activation by oxidative stress inactivated RNA polymerase I (POL1) transcription factor TIF1A in the nucleoli to down-regulate rRNA synthesis. Mayer et al., Genes Dev. 19: 933 (2005). To investigate whether the ribosomal biogenesis was disrupted by ISP I, pre-rRNA transcription was evaluated using real-time RT-PCR analysis in LN229 cells. […] To examine the mechanisms by which ISP I disrupts POL1 transcription, the inventors initially evaluated JNK2 activity and the overall state of the transcription machinery in ISP I-treated LN229 cells.
# ChIP assays were performed using a SimpleCHIP Enzymatic Chromatin IP Kit (Magnetic beads) following the manufacturer's instructions (Cell Signaling Technology; catalog 9003). Cross-linked protein-DNA complexes were precipitated by incubating with rabbit anti-POL1A (CST; 24799s) or rabbit IgG (negative control) overnight and then with magnetic beads for 2 hours. Purified DNA fragments, […], were analyzed quantitatively by real-time PCR with primers against the rDNA promoter and gene body, following the standard-curve method. The standard curves were created by serial dilution of 2% input chromatin DNA. […]
# IOMM tumors = assay: IOMM meningioma subcutaneous xenograft mouse model; type: in vivo, Nude mice; settings: 35 mg/kg i.p. daily; 18 days after treatment
# Protocol: For subcutaneous xenografts, NSG mice (6-8 weeks old) from the NCI-Frederick animal facility and Jackson Lab (Bar Harbor, Me. USA) were injected with 5×10^6 to 1×10^7 cells subcutaneously in the flank. One week later, the tumor-bearing mice were randomly assigned to different groups and made the tumor volume baseline equivalent and treated with normal saline or Zenomycin (35 mg/kg) everyday intraperitoneally. Tumors were measured using a caliper, and volume was calculated.
# [3] = Tolerability in xenograft mouse models (bodyweight, histopathology, clinical chemistry); type: in vivo, mice
# [4] = LN229, 786-O and IOMM xenograft mouse models
smiles,measurement,setting,value
"COC1C(O)CC(=O)OC(C)CC=CC=CC(OC2CCC(N(C)C)C(C)O2)C(C)CC(CC=O)C1OC1OC(C)C(OC2CC(C)(O)C(OC(=O)CC(C)C)C(C)O2)C(N(C)C)C1O (stereo not shown) [ISP I, 4″-isolvalerylspiramycin I]",apoptosis (Annexin V stain),LN229 and U251 cells,induced a dose-dependent apoptosis
same,binding to other proteins (SPR),[1],does not bind with the other proteins
same,mitochondrial ROS (MitoSOX),"[2]; LN229 and U251, 5 μg/mL or 10 μg/mL",increase of mitochondrial ROS accumulation; also recorded: higher intracellular ROS in a dose-dependent manner
same,mitochondrial ROS (MitoSOX),"[2]; RCC cells 786-O and RCC4, 5 μg/ml or 10 μg/ml",increase in mitochondrial ROS accumulation; also recorded: higher intracellular ROS in a dose-dependent manner
same,expression of NRF2 downstream genes HMOX1 and NQO1,"NRF2, HMOX1, NQO1; 786-O and RCC4",increase in expression of the NRF2 downstream genes HMOX1 and NQO1; also recorded: significant increase in the downstream targets of NRF2 signaling
same,NRF2 expression (RT-PCR),"NRF2, HMOX1, NQO1; 786-O and RCC4, 10 μg/ml",increase in NRF2 expression; also recorded: NRF2 expression was significantly upregulated
same,expression of NRF2 downstream genes HMOX1 and NQO1,"NRF2, HMOX1, NQO1; LN229 and U251",increase of the expression of NRF2 downstream genes HMOX1 and NQO1; also recorded: significant increase in the downstream targets of NRF2 signaling
same,NRF2 expression (RT-PCR),"NRF2, HMOX1, NQO1; LN229 and U251, 10 μg/mL",increase in NRF2 expression; also recorded: NRF2 expression was significantly upregulated
same,POL1 recruitment / occupancy on rDNA (CHIP),POL1 occupancy on rDNA,reduces the occupancy of POL1 on rNDA; also recorded: significantly reduced POL1 recruitment to the promoter coding regions of rDNA
same,"tumor size, weight and burden",IOMM tumors,reduced IOMM tumor burden; also recorded: significantly reduced tumor size and weight
same,histopathology of major organs and standard clinical chemistry,[3]; 24 days after treatment,"no hematologic, renal, pancreatic or liver toxicities"
same,bodyweight during treatment,[3]; [4],bodyweight maintenance; also recorded: animals maintained their bodyweight
same,tolerability of treatment,[3]; [4],well-tolerated
